According to patent publication US20040024024A1, “Aromatic sulfone hydroxamates and their use as protease inhibitors” (priority 2001, published 2004):
pKi: −log10 of the molar value.

Key:
Human recombinant MMP-13 = molecular target: T1, Human recombinant MMP-13 (Homo sapiens, UniProt P45452); assay: In vitro MMP inhibition, Ki determination (fluorogenic substrate II); format: biochemical
T1 construct: made in house; host or cells: baculovirus / insect cells
Procedure, shortened: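 Baculovirus-expressed proenzyme, APMA-activated; 4 μM fluorogenic MCA/Dpa peptide substrate (II), at or below Km, in Tris buffer pH 7.5 with CaCl2, 1 hr at room temperature. Fluorescence at 330/420 nm; Ki from non-linear regression with Morrison's equation, not corrected for substrate.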

Human recombinant MMP-1 = molecular target: T2, Human recombinant MMP-1 (Homo sapiens, UniProt P03956); assay: as above; format: biochemical
T2 construct: made in house; host or cells: MMP-1-transfected HT-1080 cells (spent media)
T2 sequence (P03956 100-469): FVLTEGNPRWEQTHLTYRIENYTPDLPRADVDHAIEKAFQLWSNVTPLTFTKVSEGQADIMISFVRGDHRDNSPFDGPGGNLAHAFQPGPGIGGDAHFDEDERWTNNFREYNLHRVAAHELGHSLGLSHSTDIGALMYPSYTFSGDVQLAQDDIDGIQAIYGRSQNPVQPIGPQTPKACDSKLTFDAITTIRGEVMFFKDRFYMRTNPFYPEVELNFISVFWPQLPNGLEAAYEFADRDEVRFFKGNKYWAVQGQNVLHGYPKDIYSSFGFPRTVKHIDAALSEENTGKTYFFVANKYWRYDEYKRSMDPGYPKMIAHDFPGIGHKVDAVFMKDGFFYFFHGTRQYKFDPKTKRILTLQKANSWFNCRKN
Procedure, shortened: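 Activated human recombinant MMP-1 (APMA- or trypsin-activated; proenzyme from transfected HT-1080 cells) incubated 1 hr at room temperature with 4 μM MCA/Dpa fluorogenic substrate II at or below Km in Tris buffer pH 7.5 with CaCl2. Fluorescence ex 330/em 420 nm; Ki from Morrison-equation non-linear regression, uncorrected for substrate.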

[1] = substrate (II) 4 μM, 1 hr room temperature, apparent Ki, values in parenthesis

SMILES	pKi (Human recombinant MMP-13; value in parentheses)	pKi (Human recombinant MMP-1; value in parentheses)	other results
O=C(NO)C1(S(=O)(=O)c2ccc(OCCc3cccc(-c4cccc(F)c4)c3)cc2)CCOCC1 [Example 111]	–	–	pKi (Human recombinant MMP-13; value in parenthesis): 8.19; pKi (Human recombinant MMP-1; value in parenthesis): < 5.00
COCCN1CCC(C(=O)NO)(S(=O)(=O)c2ccc(OCCCc3cccc(-c4ccc(Cl)cc4)c3)cc2)CC1 [Example 50]	–	–	pKi (Human recombinant MMP-13; [1]): 9.22; pKi (Human recombinant MMP-1; [1]): < 5.00
Cc1ccc(-c2cccc(CCOc3ccc(S(=O)(=O)C4(C(=O)NO)CCOCC4)cc3)c2)cc1C [Example 117]	–	–	pKi (Human recombinant MMP-13; value in parenthesis): 7.68; pKi (Human recombinant MMP-1; value in parenthesis): < 5.00
COCCN1CCC(C(=O)NO)(S(=O)(=O)c2ccc(OCCCc3cccc(-c4cccc(F)c4)c3)cc2)CC1 [Example 511]	8.87	< 5.00	–
COCCN1CCC(C(=O)NO)(S(=O)(=O)c2ccc(OCCNC(=O)c3cc4ccccc4o3)cc2)CC1 [Example 553]	9.59	< 5.00	–
COCCN1CCC(C(=O)NO)(S(=O)(=O)c2ccc(OCCCc3cccc(-c4cccnc4)c3)cc2)CC1 [Example 509]	9.53	< 5.00	–
O=C(NCCSc1ccc(S(=O)(=O)C2(C(=O)NO)CCN(C3CC3)CC2)cc1)c1cc2ccccc2o1 [Example 542]	9.07	< 5.00	–
O=C(NO)C1(S(=O)(=O)c2ccc(OCCc3ccc(-c4ccc(O)cc4)cc3)cc2)CCOCC1 [Example 531]	8.57	< 5.00	–
O=C(NO)C1(S(=O)(=O)c2ccc(OCCCc3cccc(-c4ccc(F)c(F)c4)c3)cc2)CCOCC1 [Example 170]	–	–	pKi (Human recombinant MMP-13; value in parenthesis): 8.17; pKi (Human recombinant MMP-1; value in parenthesis): < 5.00
Cc1cc(-c2cccc(CCCOc3ccc(S(=O)(=O)C4(C(=O)NO)CCOCC4)cc3)c2)ccc1F [Example 168]	–	–	pKi (Human recombinant MMP-13; value in parenthesis): 7.56; pKi (Human recombinant MMP-1; value in parenthesis): < 5.00
CN1CCC(C(=O)NO)(S(=O)(=O)c2ccc(SCCNC(=O)c3cc4ccccc4o3)cc2)CC1 [Example 536]	8.47	< 5.00	–
O=C(NO)C1(S(=O)(=O)c2ccc(OCCCc3cccc(-c4ccc(Cl)cc4Cl)c3)cc2)CCOCC1 [Example 171]	–	–	pKi (Human recombinant MMP-13; value in parenthesis): 7.90; pKi (Human recombinant MMP-1; value in parenthesis): < 5.00
COCCN1CCC(C(=O)NO)(S(=O)(=O)c2ccc(OCCc3cccc(-c4ccccn4)c3)cc2)CC1 [Example 548]	9.42	< 5.00	–

Continued, in another order:

pKi (Human recombinant MMP-13; value in parentheses)	pKi (Human recombinant MMP-1; value in parentheses)	SMILES	other results
7.69	< 5.00	O=C(NO)C1(S(=O)(=O)c2ccc(OCCCc3cccc(-c4ccc(O)cc4)c3)cc2)CCOCC1 [Example 529]	–
9.21	< 5.00	CCCCc1ccc(COc2ccc(S(=O)(=O)C3(C(=O)NO)CCOCC3)cc2)cn1 [Example 551]	–
9.65	< 5.00	CCCCc1ccc(CCCOc2ccc(S(=O)(=O)C3(C(=O)NO)CCOCC3)cc2)cn1 [Example 533]	–
9.58	< 5.00	CCc1ccc(CCCOc2ccc(S(=O)(=O)C3(C(=O)NO)CCOCC3)cc2)cn1 [Example 535]	–
8.13	< 5.00	O=C(NO)C1(S(=O)(=O)c2ccc(OCCCc3cccc(-c4cccc(O)c4)c3)cc2)CCOCC1 [Example 530]	–
7.27	5.05	O=C(NO)C1(S(=O)(=O)c2ccc(OCCc3ccccn3)cc2)CCOCC1 [Example 556]	–
9.64	5.83	CCCCC(=O)CCCOc1ccc(S(=O)(=O)C2(C(=O)NO)CCOCC2)cc1 [Example 506]	–
9.58	< 5.00	O=C(NO)C1(S(=O)(=O)c2ccc(OCCCOCc3ccncc3)cc2)CCOCC1 [Example 555]	–
7.84	< 5.00	O=C(NO)C1(S(=O)(=O)c2ccc(OCCOc3cncnc3)cc2)CCOCC1 [Example 554]	–
